For series [1], the target named is T1, P2X purinoceptor 7 (Mus musculus) (UniProt Q9Z1M0).
T1 sequence (whole entry): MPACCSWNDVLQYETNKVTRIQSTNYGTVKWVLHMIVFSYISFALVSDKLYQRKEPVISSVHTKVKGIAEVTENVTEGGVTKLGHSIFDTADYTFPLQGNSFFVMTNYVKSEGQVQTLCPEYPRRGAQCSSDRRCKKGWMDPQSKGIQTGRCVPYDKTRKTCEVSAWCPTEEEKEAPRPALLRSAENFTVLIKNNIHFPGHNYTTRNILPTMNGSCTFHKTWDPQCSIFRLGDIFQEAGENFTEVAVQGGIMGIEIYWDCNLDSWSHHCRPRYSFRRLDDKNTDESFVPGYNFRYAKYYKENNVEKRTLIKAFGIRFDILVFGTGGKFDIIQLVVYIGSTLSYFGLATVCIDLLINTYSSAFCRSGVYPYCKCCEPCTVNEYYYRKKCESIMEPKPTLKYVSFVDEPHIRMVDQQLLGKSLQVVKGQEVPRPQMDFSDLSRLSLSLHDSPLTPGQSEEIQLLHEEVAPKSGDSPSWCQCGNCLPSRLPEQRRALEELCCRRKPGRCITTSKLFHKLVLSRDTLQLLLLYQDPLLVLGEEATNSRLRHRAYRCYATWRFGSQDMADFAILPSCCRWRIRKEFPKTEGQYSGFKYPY
In words: Antagonist activity against mouse P2X7 receptor expressed in ATP-stimulated HEK293 cells assessed as influx of PI at 1 uM by fluorescence dye uptake assay relative to control. It counts as cell-based. Also on record: scale not given: the % may be the effect or the level left.

Series [2] has as its target T1, P2X purinoceptor 7 (Mus musculus). In words: Antagonist activity against mouse P2X7 receptor expressed in ATP-stimulated HEK293 cells assessed as influx of PI at 200 nM by fluorescence dye uptake assay relative to control. Details: scale not given: the % may be the effect or the level left. It counts as cell-based.
A short description of series [3]: Metabolic stability in human liver microsomes assessed as clearance. Conditions: read-out: CLH. The class given is ADME, Microsome.
The target of series [4] is T2, P2X purinoceptor 7 (Mus musculus, UniProt Q9Z1M0).
T2 sequence (Q9Z1M0 whole entry): T1 sequence (whole entry)
Kind of series: Antagonist activity against mouse P2X7 receptor expressed in ATP-stimulated HEK293 cells assessed as influx of PI by fluorescence dye uptake assay relative to control. The class given is cell-based.

Series [5] can be described thus: Metabolic stability in mouse liver microsomes assessed as clearance. It counts as ADME, Microsome. Conditions: read-out: CLH. A general note: Liver microsomes are a subcellular fraction often used to study metabolism.
A short description of series [6]: Metabolic stability in human liver microsomes assessed as half life. The class given is ADME, Microsome.
A short description of series [7]: Metabolic stability in mouse liver microsomes assessed as half life. The class given is ADME, Microsome.
Series [8] is described as follows: Clearance in male BALB/c mouse at 10 mg/kg, po single administration measured upto 72 hrs by LC-MS/MS analysis. Conditions: in vivo. It counts as ADME, organism-based.
Series [9] can be described thus: Half life in male BALB/c mouse at 10 mg/kg, po single administration measured upto 72 hrs by LC-MS/MS analysis. The class given is ADME, organism-based. Conditions: in vivo.
Series [10] in a line: Cmax in male BALB/c mouse at 10 mg/kg, po single administration measured upto 72 hrs by LC-MS/MS analysis. The class given is ADME, organism-based. Conditions: in vivo.
A short description of series [11]: Tmax in male BALB/c mouse at 10 mg/kg, po single administration measured upto 72 hrs by LC-MS/MS analysis. It counts as ADME, organism-based. Conditions: in vivo.
A short description of series [12]: AUC (0 to t) in male BALB/c mouse at 10 mg/kg, po single administration measured upto 72 hrs by LC-MS/MS analysis. The class given is ADME, organism-based. Conditions: in vivo.

The structures appear in SMILES notation. Calls of active or inactive are those of the source. No cut-off for these calls is given here. A value given as a limit tells only on which side of the number the result lay.

Consider `CS(=O)(=O)c1ccc(-c2ncc(C(=O)NCc3cn(-c4cncc(Br)c4)nn3)s2)cc1`, for which the figures for the Activity in series [1] and in [2] were 36.8% and 33.5%, respectively.
For `CS(=O)(=O)c1ccc(-c2ncc(C(=O)NCc3cn(-c4cc(Nc5cnn(C(F)F)c5)ccn4)nn3)s2)cc1`, the Activity was 32.5% in series [1] and 26.6% in series [2].
On to `COc1ccnc(-n2cc(CNC(=O)c3cnc(-c4ccc(S(C)(=O)=O)cc4)s3)nn2)c1`, for which the Activity in series [1] is 9.9%. In addition, the outcome in [2] was inactive.
In the same order, the values of `CS(=O)(=O)c1ccc(-c2nc(C(=O)NCc3cn(-c4cccc(Br)n4)nn3)cs2)cc1` are 50% and 15.6%.
In the same order, the values of `CS(=O)(=O)c1ccc(-c2ncc(C(=O)NCc3cn(-c4cc(-c5ccc(C(F)(F)F)cc5)ccn4)nn3)s2)cc1` are “inactive” and “inactive”.
For `CS(=O)(=O)c1ccc(-c2ncc(C(=O)NCc3cn(-c4ccc(Br)nc4)nn3)s2)cc1` the same measures were 42.8% and 35%.
As to `CS(=O)(=O)c1ccc(-c2nc(C(=O)NCc3cn(-c4cc(-c5cncc(C(F)(F)F)c5)ccn4)nn3)cs2)cc1`, the figures for the Activity in series [1] and in series [2] were 32.5% and 30.3%, respectively.
One may read the IC50 as the midpoint of a concentration-inhibition curve. In general, half-life refers to the time in which the quantity being followed falls by half. For `CS(=O)(=O)c1ccc(-c2ncc(C(=O)NCc3cn(-c4cc(NC5CC(F)(F)C5)ccn4)nn3)s2)cc1`, the CLint scaled was under 12 mL/min/kg in [3] and 142 mL/min/kg in series [5]. Also, the half-maximal inhibitory concentration (IC50) in [4] was 138 nM. The half-life in series [6] is over 2 h; in [7], 0.67 h.
For `CS(=O)(=O)c1ccc(-c2ncc(C(=O)NCc3cn(-c4cc(N5CCC(F)(F)CC5)ccn4)nn3)s2)cc1` the same measures were 21.8 mL/min/kg, 92.1 mL/min/kg, 61 nM, 1.33 h and 0.987 h.
Turning to `CS(=O)(=O)c1ccc(-c2ncc(C(=O)NCc3cn(-c4ccncc4Br)nn3)s2)cc1`, the values for the Activity in [1] and in series [2] were 41% and 25.9%, respectively.
Take `CS(=O)(=O)c1ccc(-c2nc(C(=O)NCc3cn(-c4cc(-c5cccc(C(F)(F)F)c5)ccn4)nn3)cs2)cc1`: the IC50 in series [4] stood at 449 nM.
As to `CS(=O)(=O)c1ccc(-c2ncc(C(=O)NCc3cn(-c4ccc(F)cn4)nn3)s2)cc1`, the Activity was 25.7% in series [1] and 12.4% in series [2].
For `CS(=O)(=O)c1ccc(-c2nc(C(=O)NCc3cn(-c4cncc(Br)c4)nn3)cs2)cc1` the same measures were 23.9% and 17.7%.
`CS(=O)(=O)c1ccc(-c2ncc(C(=O)NCc3cn(-c4cc(-c5cncc(C(F)(F)F)c5)ccn4)nn3)s2)cc1`: the Activity in [1] came to 49.6%; in series [2] it was 42.8%.
As for `CS(=O)(=O)c1ccc(-c2nc(C(=O)NCc3cn(-c4cc(NC5CC(F)(F)C5)ccn4)nn3)cs2)cc1`, the CLint scaled in [3] stood at 13.8 mL/min/kg; in series [5], 166 mL/min/kg. Also, in [4], the half-maximal inhibitory concentration (IC50) was 55.5 nM. The half-life in series [6] is over 2 h; in series [7], 0.547 h.
What is called CL/F is the apparent clearance, not corrected for the fraction that reaches the circulation. As a reminder, the Cmax is the maximum level reached in the sampled fluid or tissue. In general, Tmax refers to the time from dosing to the highest level. The AUC(0-t) is exposure summed from dosing to a finite time, without extrapolation to infinity. Take `CS(=O)(=O)c1ccc(-c2ncc(C(=O)NCc3cn(-c4cc(C(F)(F)F)ccn4)nn3)s2)cc1`: the values for the CLint scaled in series [3] and in series [5] were under 12 mL/min/kg and 22.8 mL/min/kg, respectively. In addition, the CL/F in [8] was 11.8 mL/min/kg. The half-life in series [9] was 3.35 h; in [6] it was over 2 h; in [7], over 2 h. The IC50 in [4] is 80.6 nM. In series [10], this molecule showed a Cmax of 2230 ng/mL. The Tmax in series [11] was 2 h. The molecule also displayed an AUC(0-t) at 72 h in series [12] of 14100 ng·h/mL.
As to `Clc1cccc(-n2nnnc2NCc2ccccc2Oc2ccccn2)c1Cl`, the Activity was 96.3% in [1] and 90.7% in [2].
For the molecule `CS(=O)(=O)c1ccc(-c2nc(C(=O)NCc3cn(-c4cc(Nc5cnn(C(F)F)c5)ccn4)nn3)cs2)cc1`, the Activity in series [1] amounted to 11.4%; in series [2] it was 28.7%.
For `CS(=O)(=O)c1ccc(-c2nc(C(=O)NCc3cn(-c4ccc(Br)nc4)nn3)cs2)cc1`, the Activity in [1] worked out at 10%. Further, the outcome in series [2] was inactive.
With `Cc1ccnc(-n2cc(CNC(=O)c3cnc(-c4ccc(S(C)(=O)=O)cc4)s3)nn2)c1`, the Activity in series [1] came out at 44.4%; in series [2], 30.7%.
On to `CS(=O)(=O)c1ccc(-c2nc(C(=O)NCc3cn(-c4cc(N5CCC(F)(F)CC5)ccn4)nn3)cs2)cc1`, for which the CLint scaled is 54.2 mL/min/kg in series [3] and 273 mL/min/kg in series [5]. In addition, in series [4], the IC50 came to 103 nM. The half-life came to 0.535 h in [6] and 0.333 h in series [7].
Consider `CS(=O)(=O)c1ccc(-c2nc(C(=O)NCc3cn(-c4ccc(Cl)cn4)nn3)cs2)cc1`, for which the result in series [1] and in series [2] was inactive.
As for `CS(=O)(=O)c1ccc(-c2nc(C(=O)NCc3cn(-c4ccnc(Br)c4)nn3)cs2)cc1`, the result in [1] and in series [2] was inactive.
On to `CS(=O)(=O)c1ccc(-c2ncc(C(=O)NCc3cn(-c4cc(-c5cccc(C(F)(F)F)c5)ccn4)nn3)s2)cc1`, for which the Activity was found to be 27.4% in [1] and 13.3% in series [2].
In the same order, the values of `Cc1ccnc(-n2cc(CNC(=O)c3csc(-c4ccc(S(C)(=O)=O)cc4)n3)nn2)c1` are 5.1% and “inactive”.
In the same order, the values of `CS(=O)(=O)c1ccc(-c2nc(C(=O)NCc3cn(-c4ccncc4Br)nn3)cs2)cc1` are 39.5% and 28.6%.
For `CS(=O)(=O)c1ccc(-c2ncc(C(=O)NCc3cn(-c4cccc(Br)n4)nn3)s2)cc1` the same measures were 45% and 10.7%.
As to `CS(=O)(=O)c1ccc(-c2nc(C(=O)NCc3cn(-c4cc(Br)ccn4)nn3)cs2)cc1`, the CL/F in [8] was 25.8 mL/min/kg. The same molecule showed a half-life in [9] of 1.91 h. Besides, in [10], the highest concentration (Cmax) was determined as 1300 ng/mL. Also, in series [11], the time to peak (Tmax) worked out at 1.17 h. Moreover, in [12], the AUC(0-t) at 72 h stood at 6510 ng·h/mL.
For the molecule `CS(=O)(=O)c1ccc(-c2ncc(C(=O)NCc3cn(-c4ccnc(Br)c4)nn3)s2)cc1`, the outcome in series [1] and in series [2] was inactive.
Take `CS(=O)(=O)c1ccc(-c2ncc(C(=O)NCc3cn(-c4cc(-c5ccc(C(F)(F)F)s5)ccn4)nn3)s2)cc1`: the Activity in series [1] stood at 35.6%; in series [2], 18.4%.
Consider `CS(=O)(=O)c1ccc(-c2nc(C(=O)NCc3cn(-c4cc(-c5ccc(C(F)(F)F)s5)ccn4)nn3)cs2)cc1`, for which the Activity in series [1] was found to be 28.7%; in series [2], 24.9%.
For `CS(=O)(=O)c1ccc(-c2ncc(C(=O)NCc3cn(-c4ccc(Cl)cn4)nn3)s2)cc1` the same measures were 28.1% and “inactive”.
Turning to `CS(=O)(=O)c1ccc(-c2nc(C(=O)NCc3cn(-c4ccc(F)cn4)nn3)cs2)cc1`, the Activity in [1] is 48.4%; in series [2], 13.3%.
Take `CS(=O)(=O)c1ccc(-c2nc(C(=O)NCc3cn(-c4cc(-c5ccc(C(F)(F)F)cc5)ccn4)nn3)cs2)cc1`: the Activity in [1] was found to be 37%; in [2], 27.1%.
Consider `COc1ccnc(-n2cc(CNC(=O)c3csc(-c4ccc(S(C)(=O)=O)cc4)n3)nn2)c1`, for which the Activity in series [1] is 20.2%; in series [2] it was 6%.

Source of the values: ChEMBL document CHEMBL6120956, “Discovery of a Potent, Orally Active, and Long-Lasting P2X7 Receptor Antagonist as a Preclinical Candidate for Delaying the Progression of Chronic Kidney Disease” (J Med Chem, 2024).
